Measurements: US12104173B2, “Method for differentiation of human pluripotent stem cell lines in suspension culture” (AGENCY FOR SCIENCE, TECHNOLOGY AND RESEARCH, priority 2018, dated 2024)

Tested on: D9 O-neg hiPSC line
Test: CHIR dose: hematopoietic/erythroid differentiation of agitated hPSC-MC aggregates
Format: cell-based, human
Details: for Erythroblast expansion Fold-expansion: optimal dose of CHIR-99021, 24 days in erythroblast expansion medium (static), cumulative
Experimental: Human pluripotent stem cell-microcarrier (HPSC-MC) aggregates generated from different hPSC lines were differentiated using 3 different CHIR doses (5, 10 and 15 μM for 24 hours) and were evaluated for T-bra (day 2) and KDR+PDGFRβ− (day 4) expression by flow cytometry, induction of key hematopoietic transcription factors by RT-PCR (day 4), hematopoietic precursor expansion (day 14) and erythroblast expansion (day 42).
Table 2—Hematopoietic differentiation of nine human pluripotent stem cell (hPSC) lines, from expansion in agitated microcarrier culture to erythroblast expansion—This table summarises the different stages of differentiation; hPSC expansion, mesoderm induction, hematopoietic precursor and erythroblast expansion of multiple hPSC-MC aggregate lines differentiated with optimal dose of CHIR-99021. Fold-expansion of hPSC-MC aggregates following 7 days of agitated culture, hematopoietic precursors following 14 days of culture in methylcellulose medium and erythroblast expansion following 24 days in expansion medium are reported. Flow cytometric evaluation of % T-bra+ cells on day 2 and % KDR+ cells on day 4 during mesoderm induction, % CD43+ cells during hematopoietic precursor expansion, % CD235a+ cells and fetal hemoglobin expression during erythroblast expansion stage are summarised. Total erythroid cells per hPSC seeded on day 42 was calculated as number of embryoid bodies derived on day 4 per hPSC seeded*erythroblast fold expansion*percent CD235a+ erythroblast.
Analysis of Design of experiments (DoE) outcomes and evaluation of selected conditions generated by the MODDE® software allowed the development of an optimized protocol for hematopoietic mesoderm induction of human pluripotent stem cell-microcarrier (hPSC-MC) aggregates initially expanded under continuous agitation. Approximately 2 to 4 million hPSC-MC aggregates in 3 ml of Stemline® II medium were differentiated as follows: day 1; 30 ng/ml of BMP4, 50 ng/ml VEGF165, 12 μM CHIR-99021 (Selleck Chemicals, USA), 50 ng/ml Activin A, day 2; 30 ng/ml of BMP4, 50 ng/ml VEGF165, 50 ng/ml Activin A, day 3: 30 ng/ml of BMP4, 50 ng/ml VEGF165 and 20 ng/ml bFGF. Four days post-differentiation, single cells derived by TrypLE™ Express (ThermoFisher Scientific) treatment and strained through 40 μm cell strainers (Greiner Bio-one, Germany) were used for hematopoietic precursor and erythroblast expansion and erythroblast terminal maturation as detailed herein. Hematopoietic and erythroblast differentiation were monitored by flow cytometry, quantitative real-time PCR, immunoblotting and microscopic imaging. Oxygen binding affinity of differentiated erythroblast was determined using a Hemox Analyzer (TCS Scientific Corp, USA).
HPSC-MC aggregates were dissociated into single cells by treatment with TrypLE. Express (ThermoFisher Scientific) for 5 minutes at 37° C., passed through 40 μm cell strainer (Greiner Bio-one), centrifuged at 1300 rpm for 3 minutes to pellet cells, and rinsed once with phosphate buffered saline (PBS) before re-suspension in Stemline II medium. Two hundred thousand cells in 100 μl of Stemline II medium were transferred to a 6-well ultra-low attachment plate and cultured with Blast growth medium (BGM) for 2 weeks in static conditions as detailed herein.
Hematopoietic precursors were mixed with equal volume of Stemline II medium containing 50 ng/ml of SCF (STEMCELL. Technologies) and 3 U/ml EPO (Peprotech, USA), for an additional 7 days. Subsequently, cells were diluted 10-fold with PBS and pelleted by centrifugation at 3000 rpm for 10 minutes. […]

## Cc1c[nH]c(-c2cnc(NCCNc3ccc(C#N)cn3)nc2-c2ccc(Cl)cc2Cl)n1 [CHIR-99021, 6-[[2-[[4-(2,4-Dichlorophenyl)-5-(5-methyl-1H-imidazol-2-yl)-2-pyrimidinyl]amino]ethyl]amino]-3-pyridinecarbonitrile]
15 μM CHIR for 24 hours, day 2, flow cytometry
  T-Bra+ cells: 39±5.37%
15 μM CHIR for 24 hours, day 4, flow cytometry
  KDR+PDGFRβ- cells: 18.07±0.6%
Optimal dose of CHIR-99021
  Total erythroid cells per hPSC seeded (day 42): 63
Optimal dose of CHIR-99021, 14 days in methyl cellulose medium
  Hematopoietic precursor expansion % CD43: 21.3%
Optimal dose of CHIR-99021, 14 days in methyl cellulose medium (static)
  Hematopoietic precursor expansion Fold-expansion: 6.0 fold
Day 42
  Erythroblast expansion Fold-expansion: 121 fold
Day 42, listed as CHIR
  Erythroblast expansion Fold-expansion: 121.2±36.89 fold
Optimal dose of CHIR-99021, day 2
  Mesoderm induction % T-Bra: 41.8%
Optimal dose of CHIR-99021, erythroblast expansion stage
  Erythroblast expansion % CD235a+: 57.5%
Optimal dose of CHIR-99021, fetal hemoglobin, flow cytometry
  Erythroblast expansion Hemoglobin expression: 97.8
